Tests used:
[1] = target: human κ-opioid receptor (OPRK1) (Homo sapiens, UniProt P41145); type: cell-based; settings: read-out: KOR EC50 ± SEM
male C57 BL/6 mice = assay: animal or person; type: in vivo
[2] = test system: human μ-opioid receptor β-arrestin-2; type: cell-based

Chain of human κ-opioid receptor (OPRK1) (P41145 whole entry): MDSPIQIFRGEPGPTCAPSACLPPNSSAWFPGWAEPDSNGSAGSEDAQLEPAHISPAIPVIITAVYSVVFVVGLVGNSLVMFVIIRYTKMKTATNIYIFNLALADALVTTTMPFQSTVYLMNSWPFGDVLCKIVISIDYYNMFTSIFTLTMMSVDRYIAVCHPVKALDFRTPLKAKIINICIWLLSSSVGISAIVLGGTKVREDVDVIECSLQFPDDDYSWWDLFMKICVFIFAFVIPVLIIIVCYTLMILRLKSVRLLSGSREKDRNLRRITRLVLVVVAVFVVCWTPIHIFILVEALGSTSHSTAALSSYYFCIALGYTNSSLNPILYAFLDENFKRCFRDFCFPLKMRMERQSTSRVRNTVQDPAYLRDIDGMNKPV

Structure (SMILES) | EC50 [1] [µM] | antinociceptive ED50, day 1 (male C57 BL/6 mice; mouse, in vivo) [mg/kg] | antinociceptive ED50, day 9 (male C57 BL/6 mice; mouse, in vivo) [mg/kg] | antinociceptive tolerance on day 9 compared to day 1 (male C57 BL/6 mice; mouse, in vivo, sc) | Bias Factor [2] | β-arrestin recruitment % Efficacy [2] | ED50 (male C57 BL/6 mice; Mus musculus, 24 h, read-out: antinociceptive ED50, day 1) [mg/kg] | onset of tolerance (male C57 BL/6 mice; mouse, in vivo, sc) [days]
COC(=O)[C@@H]1C=C(OC(=O)c2ccccc2)C(=O)[C@H]2[C@@]1(C)CC[C@H]1C(=O)O[C@H](c3ccoc3)C[C@]21C [Compound 1, kurkinorin] | > 10 | 5 ± 0.51 | 7.9 ± 0.11 | reduced tolerance compared to morphine |  |  |  | 
C[C@@H](NC(=O)[C@@H](N)Cc1ccc(O)cc1)C(=O)NCC(=O)N(C)[C@@H](Cc1ccccc1)C(=O)NCCO [DAMGO] |  |  |  |  | 1 | 42 ± 5 (97) % |  | 
CN1CC[C@]23c4c5ccc(O)c4O[C@H]2[C@@H](O)C=C[C@H]3[C@H]1C5 [Morphine] |  |  |  | significant induction of tolerance |  |  | 6.43 ± 0.27 | 5

Source: article PMC7359744 (ACS chemical neuroscience, 2020)
